# Measured values as given in patent US20240277698A1, “METHODS OF USING ALDOSTERONE SYNTHASE INHIBITORS” (CINCOR PHARMA, INC., priority 2021, published 2024).
# Key:
# [1] = MAD study: predose plasma adrenocorticotropic hormone (ACTH); type: in vivo, human
# Text: Table 10 presents mean predose plasma ACTH concentrations over time and change and percent change from Day 1 to Day 10 predose concentrations by treatment group for the PD Population.
# [2] = SAD study Part 2: adverse events under low/normal salt diet and 3 mg IV dose; type: in vivo
# Protocol: There were no dose-related increases in the incidence of AEs (Table 15). No severe AEs, SAEs, withdrawals due to AEs, or deaths were reported. A larger proportion of subjects reported AEs during the 3 mg IV dose (75%) compared to any of the oral doses (maximum of 66.7% with 3 mg during the low salt diet and with 10 mg during both the low and normal salt diet). Overall, the most frequently reported AEs were nasopharyngitis, asthenia, and dizziness. AEs reported by >1 subject at any dose level and with either salt diet were asthenia (2 subjects [33.3%] with 10 mg low salt diet, 2 subjects [33.3%] with placebo low salt diet), nasopharyngitis (3 subjects [37.5%] with 3 mg IV, 2 subjects [33.3%] with 10 mg low salt diet), dizziness (2 subjects [33.3%] with 3 mg low salt diet) and gingival pain (2 subjects [33.3%] with 10 mg low salt diet). Only 1 AE (dizziness) reported by a subject receiving 10 mg (R)-compound 1 under normal salt diet conditions was considered related to the study drug. One case of fractured coccyx and one case of concussion (both reported for subjects who received the IV dose) were moderate in intensity and all other AEs were mild in intensity. […]
# [3] = Renal impairment study, single 10 mg dose: pharmacokinetics; type: in vivo, human; details: for geometric mean ratio AUC(0-inf) versus control group / geometric mean ratio AUC(0-last) versus control group / geometric mean ratio Cmax versus control group: single 10 mg dose
# Protocol: Of particular relevance to study subjects who will be enrolled in this trial is the investigation of the pharmacokinetics of (R)-compound 1 in individuals with varying degrees of renal impairment. The PK profiles of (R)-compound 1 and its primary metabolite following administration of a single 10 mg dose in individuals with renal impairment were qualitatively and quantitatively similar to those measured in healthy subjects. […] There were no noteworthy increases in systemic exposure or decrease in clearance in individuals with impaired renal function. Dose adjustment of (R)-compound 1 based on renal function was therefore not necessary.
# One subject with end stage disease experienced an unrelated SAE of metabolic encephalopathy and a moderate unrelated adverse event (AE) of tremor. One control subject experienced a mild AE of diarrhea, which was considered to be related to study drug by the Investigator. […] It is not necessary to dose adjust (R)-compound 1 for patients with renal impairment.
# There was no substantial impact of renal impairment on the PK of (R)-compound 1 based on pair-wise comparisons and no strong or nonlinear relationship between estimated GFR and PK parameters was observed. Findings for the primary metabolite of (R)-compound 1 was similar to those for parent with no clinically meaningful differences observed across groups. The percent of the dose excreted renally was approximately 12% in the control group and the moderate to severe renal impairment group. […] Based on the results of this study, dose adjustment of (R)-compound 1 in renally impaired individuals is not considered necessary.
# [4] = moderate to severe renal impairment group
compound,measurement,setting,value
"CCC(=O)N[C@@H]1CCCc2c(-c3ccc4c(c3)CCC(=O)N4C)cncc21 [(R)-Compound 1, (R)—N-(4-(1-methyl-2-oxo-1,2,3,4-tetrahydroquinolin-6-yl)-5,6,7,8-tetrahydroisoquinolin-8-yl)propionamide]","Plasma ACTH, change from Day 1 to Day 10, predose, mean","[1]; 0.5 mg, normal salt diet",-0.15 pmol/L
same,"Plasma ACTH, percent change from Day 1 to Day 10, predose, mean","[1]; 0.5 mg, normal salt diet",−2.01%
same,"Plasma ACTH, change from Day 1 to Day 10, predose, mean","[1]; 1.5 mg, normal salt diet",-1.63 pmol/L
same,"Plasma ACTH, percent change from Day 1 to Day 10, predose, mean","[1]; 1.5 mg, normal salt diet",−24.00%
same,"Plasma ACTH, change from Day 1 to Day 10, predose, mean","[1]; 2.5 mg, low salt diet",2.11 pmol/L
same,"Plasma ACTH, percent change from Day 1 to Day 10, predose, mean","[1]; 2.5 mg, low salt diet",184.44%
same,"Plasma ACTH, change from Day 1 to Day 10, predose, mean","[1]; 2.5 mg, normal salt diet",-4.04 pmol/L
same,"Plasma ACTH, percent change from Day 1 to Day 10, predose, mean","[1]; 2.5 mg, normal salt diet",−35.69%
same,"Plasma ACTH, change from Day 1 to Day 10, predose, mean","[1]; 5.0 mg, low salt diet",1.57 pmol/L
same,"Plasma ACTH, percent change from Day 1 to Day 10, predose, mean","[1]; 5.0 mg, low salt diet",125.86%
same,"Predose plasma ACTH, mean","[1]; Day 1, predose, 0.5 mg, normal salt diet",3.91 pmol/L
same,"Predose plasma ACTH, mean","[1]; Day 1, predose, 1.5 mg, normal salt diet",6.30 pmol/L
same,"Predose plasma ACTH, mean","[1]; Day 1, predose, 2.5 mg, low salt diet",1.47 pmol/L
same,"Predose plasma ACTH, mean","[1]; Day 1, predose, 2.5 mg, normal salt diet",6.40 pmol/L
same,"Predose plasma ACTH, mean","[1]; Day 1, predose, 5.0 mg, low salt diet",1.96 pmol/L
same,"Predose plasma ACTH, mean","[1]; Day 10, predose, 0.5 mg, normal salt diet",3.76 pmol/L
same,"Predose plasma ACTH, mean","[1]; Day 10, predose, 1.5 mg, normal salt diet",4.67 pmol/L
same,"Predose plasma ACTH, mean","[1]; Day 10, predose, 2.5 mg, low salt diet",3.59 pmol/L
same,"Predose plasma ACTH, mean","[1]; Day 10, predose, 2.5 mg, normal salt diet",2.80 pmol/L
same,"Predose plasma ACTH, mean","[1]; Day 10, predose, 5.0 mg, low salt diet",3.52 pmol/L
same,ACTH increase compared to placebo,[1]; low salt diet conditions (Cohorts 1 and 2),somewhat more pronounced
same,ACTH,[1]; normal salt diet conditions,apparent dose-dependent decreases
same,"Any AE, % of subjects","[2]; 1 mg, low salt diet, N = 6",(33.3) %
same,"Any AE, number of subjects","[2]; 1 mg, low salt diet, N = 6",2
same,"Related AE, number of subjects","[2]; 1 mg, low salt diet, N = 6",0
same,"Any AE, % of subjects","[2]; 1 mg, normal salt diet, N = 6",(50.0) %
same,"Any AE, number of subjects","[2]; 1 mg, normal salt diet, N = 6",3
same,"Related AE, number of subjects","[2]; 1 mg, normal salt diet, N = 6",0
same,proportion of subjects reporting AEs,[2]; 3 mg IV dose,75%
same,"Any AE, % of subjects","[2]; 3 mg IV, N = 8",(75.0) %
same,"Any AE, number of subjects","[2]; 3 mg IV, N = 8",6
same,"Related AE, number of subjects","[2]; 3 mg IV, N = 8",0
same,"proportion of subjects reporting AEs, maximum of the oral doses","[2]; 3 mg low salt diet, 10 mg low and normal salt diet",≤ 66.7%
same,"Any AE, % of subjects","[2]; 3 mg, low salt diet, N = 6",(66.7) %
same,"Any AE, number of subjects","[2]; 3 mg, low salt diet, N = 6",4
same,"Related AE, number of subjects","[2]; 3 mg, low salt diet, N = 6",0
same,"Any AE, % of subjects","[2]; 3 mg, normal salt diet, N = 6",(33.3) %
same,"Any AE, number of subjects","[2]; 3 mg, normal salt diet, N = 6",2
same,"Related AE, number of subjects","[2]; 3 mg, normal salt diet, N = 6",0
same,AEs considered related to the study drug (dizziness),[2]; 10 mg normal salt diet,1 AE
same,"Any AE, % of subjects","[2]; 10 mg, low salt diet, N = 6",(66.7) %
same,"Any AE, number of subjects","[2]; 10 mg, low salt diet, N = 6",4
same,"Related AE, number of subjects","[2]; 10 mg, low salt diet, N = 6",0
same,"Any AE, % of subjects","[2]; 10 mg, normal salt diet, N = 6",(66.7) %
same,"Any AE, number of subjects","[2]; 10 mg, normal salt diet, N = 6",4
same,"Related AE, % of subjects","[2]; 10 mg, normal salt diet, N = 6",(16.7) %
same,"Related AE, number of subjects","[2]; 10 mg, normal salt diet, N = 6",1
same,percent of the dose excreted renally,[3]; control group,approximately 12%
same,renal excretion,[3]; kidney failure group,negligible renal excretion
same,geometric mean ratio AUC(0-inf) versus control group,[3]; kidney failure group,0.68
same,geometric mean ratio AUC(0-last) versus control group,[3]; kidney failure group,0.68
same,geometric mean ratio Cmax versus control group,[3]; kidney failure group,0.88
same,percent of the dose excreted renally,[3]; [4],approximately 12%
same,geometric mean ratio AUC(0-inf) versus control group,[3]; [4],1.21
same,geometric mean ratio AUC(0-last) versus control group,[3]; [4],1.17
same,geometric mean ratio Cmax versus control group,[3]; [4],1.02
